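The compound was tested at five concentrations on cells cultured in 96-well plates, with a 48-hour exposure period. At the GI50, growth is halved. TGI: total growth inhibition.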
Columns and labels:
Test in all cases: inhibition of tumour cell growth, NCI panel, 48 h
786-0 renal = test system: 786-0 renal
A498 renal = test system: A498 renal
A549 NSCLC = test system: A549 NSCLC
ACHN renal = test system: ACHN renal
BT-549 breast = test system: BT-549 breast
CAKI-1 renal = test system: CAKI-1 renal
CCRF-CEM leukemia = test system: CCRF-CEM leukemia
COLO 205 colon = test system: COLO 205 colon
DU-145 prostate = test system: DU-145 prostate
EKVX NSCLC = test system: EKVX NSCLC
HCC-2998 colon = test system: HCC-2998 colon
HCT-116 colon = test system: HCT-116 colon
HCT-15 colon = test system: HCT-15 colon
HL-60(TB) leukemia = test system: HL-60(TB) leukemia
HOP-62 NSCLC = test system: HOP-62 NSCLC
HOP-92 NSCLC = test system: HOP-92 NSCLC
HS 578T breast = test system: HS 578T breast
HT29 colon = test system: HT29 colon
IGROV1 ovarian = test system: IGROV1 ovarian
K-562 leukemia = test system: K-562 leukemia
KM12 colon = test system: KM12 colon
LOX IMVI melanoma = test system: LOX IMVI melanoma
M14 melanoma = test system: M14 melanoma
MALME-3M melanoma = test system: MALME-3M melanoma
MCF7 breast = test system: MCF7 breast
MDA-MB-231 breast = test system: MDA-MB-231 breast
MDA-MB-435 = test system: MDA-MB-435
MOLT-4 leukemia = test system: MOLT-4 leukemia
NCI-H226 lung = test system: NCI-H226 lung
NCI-H23 lung = test system: NCI-H23 lung
NCI-H460 lung = test system: NCI-H460 lung
NCI-H522 lung = test system: NCI-H522 lung
NCI/ADR-RES ovarian = test system: NCI/ADR-RES ovarian
OVCAR-3 ovarian = test system: OVCAR-3 ovarian
OVCAR-4 ovarian = test system: OVCAR-4 ovarian
OVCAR-5 ovarian = test system: OVCAR-5 ovarian
OVCAR-8 ovarian = test system: OVCAR-8 ovarian
PC-3 prostate = test system: PC-3 prostate
RPMI-8226 leukemia = test system: RPMI-8226 leukemia
RXF 393 renal = test system: RXF 393 renal
SF-268 CNS = test system: SF-268 CNS
SF-295 CNS = test system: SF-295 CNS
SF-539 CNS = test system: SF-539 CNS
SK-MEL-2 melanoma = test system: SK-MEL-2 melanoma
SK-MEL-28 melanoma = test system: SK-MEL-28 melanoma
SK-MEL-5 melanoma = test system: SK-MEL-5 melanoma
SK-OV-3 ovarian = test system: SK-OV-3 ovarian
SN12C renal = test system: SN12C renal
SNB-19 CNS = test system: SNB-19 CNS
SNB-75 CNS = test system: SNB-75 CNS
SW-620 colon = test system: SW-620 colon
T-47D breast = test system: T-47D breast
TK-10 renal = test system: TK-10 renal
U251 CNS = test system: U251 CNS
UACC-257 melanoma = test system: UACC-257 melanoma
UACC-62 melanoma = test system: UACC-62 melanoma
UO-31 renal = test system: UO-31 renal

## C#CC1(O)C(COP(=O)(O)OCC(COP(=O)(O)OCC2OC(n3cc(F)c(=O)[nH]c3=O)CC2O)OCCCCCCCCCCCCCCCCCC)OC(n2ccc(N)nc2=O)C1O (configuration not stated)
786-0 renal
  GI50: 37.9 nM
  TGI: 17000 nM
A498 renal
  GI50: 421 nM
  TGI: 12100 nM
A549 NSCLC
  GI50: 117 nM
  TGI: > 68300 nM
ACHN renal
  GI50: 149 nM
  TGI: > 100000 nM
BT-549 breast
  GI50: 155 nM
  TGI: 5410 nM
CAKI-1 renal
  GI50: 29.3 nM
  TGI: 1160 nM
CCRF-CEM leukemia
  GI50: 217 nM
  TGI: > 39700 nM
COLO 205 colon
  GI50: < 20.2 nM
  TGI: 1070 nM
DU-145 prostate
  GI50: 106 nM
  TGI: > 71900 nM
EKVX NSCLC
  GI50: 618 nM
  TGI: 25800 nM
HCC-2998 colon
  GI50: 75.2 nM
  TGI: 1260 nM
HCT-116 colon
  GI50: < 10 nM
  TGI: > 40700 nM
HCT-15 colon
  GI50: 134 nM
  TGI: > 100000 nM
HL-60(TB) leukemia
  GI50: 982 nM
  TGI: > 100000 nM
HOP-62 NSCLC
  GI50: 63.1 nM
  TGI: 10600 nM
HOP-92 NSCLC
  GI50: 764 nM
HS 578T breast
  GI50: 2160 nM
  TGI: > 52800 nM
HT29 colon
  GI50: 104 nM
  TGI: > 71900 nM
IGROV1 ovarian
  GI50: 236 nM
K-562 leukemia
  GI50: 338 nM
  TGI: > 100000 nM
KM12 colon
  GI50: 93.3 nM
  TGI: > 34100 nM
LOX IMVI melanoma
  GI50: 76.5 nM
  TGI: > 27700 nM
M14 melanoma
  GI50: 215 nM
  TGI: 6450 nM
MALME-3M melanoma
  GI50: 102 nM
  TGI: 5360 nM
MCF7 breast
  GI50: < 10 nM
  TGI: > 32000 nM
MDA-MB-231 breast
  GI50: 320 nM
MDA-MB-435
  GI50: 566 nM
  TGI: > 27200 nM
MOLT-4 leukemia
  GI50: 348 nM
  TGI: > 100000 nM
NCI-H226 lung
  GI50: 113 nM
NCI-H23 lung
  GI50: 280 nM
  TGI: 8720 nM
NCI-H460 lung
  GI50: < 10 nM
NCI-H522 lung
  GI50: 712 nM
  TGI: > 34800 nM
NCI/ADR-RES ovarian
  GI50: 147 nM
  TGI: > 40400 nM
OVCAR-3 ovarian
  GI50: 448 nM
OVCAR-4 ovarian
  GI50: 992 nM
  TGI: > 100000 nM
OVCAR-5 ovarian
  GI50: 5360 nM
  TGI: > 52600 nM
OVCAR-8 ovarian
  GI50: 169 nM
  TGI: > 36500 nM
PC-3 prostate
  GI50: 39.7 nM
  TGI: 6720 nM
RPMI-8226 leukemia
  GI50: 111 nM
  TGI: > 100000 nM
RXF 393 renal
  GI50: 393 nM
  TGI: 6330 nM
SF-268 CNS
  GI50: 102 nM
  TGI: 9450 nM
SF-295 CNS
  GI50: 55.5 nM
  TGI: 16300 nM
SF-539 CNS
  GI50: < 10 nM
  TGI: 3330 nM
SK-MEL-2 melanoma
  GI50: 481 nM
  TGI: 6240 nM
SK-MEL-28 melanoma
  GI50: 7400 nM
  TGI: > 100000 nM
SK-MEL-5 melanoma
  GI50: 275 nM
  TGI: 9290 nM
SK-OV-3 ovarian
  GI50: 10100 nM
  TGI: 76300 nM
SN12C renal
  GI50: < 22.9 nM
  TGI: 1930 nM
SNB-19 CNS
  GI50: 313 nM
  TGI: > 57200 nM
SNB-75 CNS
  GI50: 713 nM
  TGI: > 55300 nM
SW-620 colon
  GI50: 26.9 nM
  TGI: > 100000 nM
T-47D breast
  GI50: 3720 nM
  TGI: > 51300 nM
TK-10 renal
  GI50: 241 nM
  TGI: > 29000 nM
U251 CNS
  GI50: 135 nM
  TGI: > 100000 nM
UACC-257 melanoma
  GI50: 448 nM
  TGI: > 31600 nM
UACC-62 melanoma
  GI50: 196 nM
  TGI: 2690 nM
UO-31 renal
  GI50: 461 nM

Source: PubChem BioAssay (NCI)
